The text below walks through data of publication PMC6470675, “Design and Synthesis of New Quinoxaline Derivatives as Anticancer Agents and Apoptotic Inducers” (Molecules, 2019).

For orientation: IC50 means the concentration at which inhibition is half-maximal. For orientation: inhibition means the relative decrease from the control value, in per cent. One may read the melting point as the temperature of the solid-liquid transition.

Data set [1] concerns HCT116 human colon carcinoma cell line. Briefly: In vitro cell proliferation (MTT) assay, HCT116. In kind it is cell-based. Conditions: Homo sapiens, HCT-116; MTT, 72 h exposure. As to the method: (§1) The targeted compounds were tested for their in-vitro anti-cancer activity against three tumor cell lines (HCT116, Hep G2 and MCF-7). Doxorubicin was included in the experiments as a reference cytotoxic compound. Exponentially growing cells from different cancer cell lines were trypsinized, counted and seeded at the appropriate densities into 96-well microtiter plates. Cells then were incubated in a humidified atmosphere at 37 °C for 24 h. Then, cells were exposed to different concentrations of compounds for 72 h. Then the viability of treated cells was determined using MTT technique (described latter).
(§2) Three cancer cell lines including human colon carcinoma (HCT116), human breast adenocarcinoma (MCF-7) and human hepatocellular carcinoma (Hep G2), were purchased from American Type Cell Culture Collection (ATCC, Manassas, VA, USA) and grown on the appropriate growth medium Dulbecco’s modified Eagle’s medium (DMEM) or Roswell Park Memorial Institute medium (RPMI 1640) supplemented with […] of streptomycin, 100 units/mL of penicillin and 10% of heat-inactivated fetal bovine serum in a humidified, 5% (v/v) CO2 atmosphere at 37 °C [34]. Cytotoxicity assay by 3-[4,5-dimethylthiazole-2-yl]-2,5-diphenyltetrazolium bromide (MTT).
(§3) Exponentially growing cells from different cancer cell lines were trypsinized, counted and seeded at the appropriate densities (2000–1000 cells/0.33 cm^2 well) into 96-well microtiter plates. Cells then were incubated in a humidified atmosphere at 37 °C for 24 h. Then, cells were exposed to different concentrations of compounds (0.1, 10, 100, 1000 µM) for 72 h. Then the viability of treated cells was determined using MTT technique as follow. Media were removed; cells were incubated with 200 μL of 5% MTT solution/well (Sigma Aldrich, Darmstadt, Germany) and were allowed to metabolize the dye into a colored-insoluble formazan crystal for 2 h. The remaining MTT solution were discarded from the wells and the formazan crystals were dissolved in 200 µl/well acidified isopropanol for 30 min, covered with aluminum foil and with continuous shaking using a MaxQ 2000 plate shaker (Thermo Fisher Scientific Inc, Waltham, MA, USA) at room temperature. Absorbance were measured at 570 nm using a Stat Fax^R 4200 plate reader (Awareness Technology, Inc., Awareness Technology, FL, USA). The cell viability was expressed as percentage of control and the concentration that induces 50% of maximum inhibition of cell proliferation (IC50) were determined using Graph Pad Prism version 5 software (Graph Pad Software Inc, San Diego, CA, USA) (1,2).

Data set [2] relates to Hep G2 human hepatocellular carcinoma cell line. Briefly: In vitro cell proliferation (MTT) assay, Hep G2. In kind it is cell-based. Conditions: for IC50: Homo sapiens, HepG2, MTT, 72 h exposure. As to the method: as §1, §2, §3
Data set [3] concerns MCF-7 human breast adenocarcinoma cell line. The experiment in a line: In vitro cell proliferation (MTT) assay, MCF-7. It counts as cell-based. The conditions noted are these: Homo sapiens, MCF7; MTT, 72 h exposure. As to the method: as §1, §2, §3
Data set [4] deals with T1, VEGFR-2 (Homo sapiens, UniProt P35968).
T1 construct: purchased Bio Science Corporation (BPS), San Diego, CA, USA
Briefly: In vitro VEGFR-2 inhibition assay (Kinase-Glo Plus luminescence). The conditions noted are these: for inhibition at 10 µM: single concentration of 10 µM, read-out: % of VEGFR-2 Inhibition. It counts as biochemical. As to the method:
In an attempt to investigate the possible mechanism of action of the synthesized compounds based on structural similarity with sorafenib, all of them were tested for VEGFR-2 inhibitory activity at Bio Science Corporation (BPS, San Diego, CA, USA). The assay was performed using the Kinase-Glo Plus luminescence kinase assay kit (Promega, San Diego, CA, USA). It measures kinase activity by quantitating the amount of ATP remaining in solution following a kinase reaction. […].
The in-vitro enzyme inhibition determination for the synthesized compounds was carried out at Bio Science Corporation (BPS)-San Diego, CA, USA. The assay was performed using Kinase-Glo Plus luminescence kinase assay kit (Promega), where the kinase activity was measured by quantitating the amount of ATP remaining in solution following a kinase reaction. The luminescent signal from the assay is correlated with the amount of ATP present and is inversely correlated with the amount of kinase activity. Our compounds were diluted with 10% DMSO and 5 µL of the dilution was added to a 50 µL reaction so that the final concentration of DMSO is 1% in all of reactions. All of the enzymatic reactions were conducted at 30 °C for 40 min. The 50 µL reaction mixture contains 40 mM Tris, pH 7.4, 10 mM MgCl2, 0.1 mg/mL BSA, 1 mM DTT, 10 µM ATP, Kinase substrate and the enzyme. After the enzymatic reaction, 50 µL of Kinase-Glo Plus Luminescence kinase assay solution (Promega San Diego, CA, USA) was added to each reaction and incubate the plate for 5 min at room temperature. Luminescence signal was measured using a BioTek Synergy 2 microplate reader.
Kinase activity assays were performed in duplicate at each concentration. The luminescence data were analyzed using the computer software, Graphpad Prism. The difference between luminescence intensities in the absence of Kinase (Lut) and in the presence of Kinase (Luc) was defined as 100% activity (Lut − Luc). Using luminescence signal (Lu) in the presence of the compound, % activity was calculated as:% activity = {(Lut − Lu)(Lut − Luc)} × 100% where Lu = the luminescence intensity in the presence of the compound.
For orientation: Kinase-Glo measures the ATP left after a reaction by luminescence.

Data set [5] relates to three tumor cell lines (HCT116, Hep G2 and MCF-7). The experiment in a line: In vitro anti-cancer activity stated for the tested cell lines together. In kind it is cell-based, human. Conditions: HCT116, Hep G2 and MCF-7 together. As to the method:
as §1, §2
Exponentially growing cells from different cancer cell lines were trypsinized, counted and seeded at the appropriate densities (2000–1000 cells/0.33 cm^2 well) into 96-well microtiter plates. Cells then were incubated in a humidified atmosphere at 37 °C for 24 h. Then, cells were exposed to different concentrations of compounds (0.1, 10, 100, 1000 µM) for 72 h. Then the viability of treated cells was determined using MTT technique as follow. Media were removed; cells were incubated with 200 μL of 5% MTT solution/well (Sigma Aldrich, Darmstadt, Germany) and were allowed to metabolize the dye into a colored-insoluble formazan crystal for 2 h. […] Absorbance were measured at 570 nm using a Stat Fax^R 4200 plate reader (Awareness Technology, Inc., Awareness Technology, FL, USA). […]

The target in data set [6] is T1, VEGFR-2. The conditions noted are these: cited from earlier work.
In data set [7] the test system is HCT116 cells. Briefly: Cell cycle analysis by flow cytometry. In kind it is cell-based, human. Conditions: 2.5 µM. As to the method: The effect of compound VIIIc on the normal cell cycle progression was characterized using flow cytometric analysis of the DNA ploidy in HCT116 cells Figure 3. […] The observed increase in pre-G cell population may imply DNA fragmentation and apoptosis as a potential mechanism for VIIIc-induced cancer cell death.
HCT116 cells at a density of 4 × 10^6 cell/T 75 flask were exposed to 1-(4-Chlorophenyl)-3-(4-((3-methylquinoxalin-2-yl)amino)phenyl)urea VIIIc at its IC50 concentration for 24 and 48 h. The cells then were collected by trypsinization, washed with phosphate buffered saline (PBS), and fixed in ice-cold absolute alcohol. Thereafter, cells were stained, using Cycle test ^TM Plus DNA Reagent Kit (BD Biosciences, San Jose, CA, USA), according to the manufacturer’s instructions. Cell cycle distribution was determined using a FACS Calibur flow cytometer (BD Biosciences).
On the technique in general: A flow cytometer gives signals particle by particle.

In data set [8] the test system is HCT116 cells. Briefly: Annexin V-FITC/PI apoptosis determination. In kind it is cell-based, human. The conditions noted are these: IC50 (2.5 µM), 24 h and 48 h, compared to DMSO treated cells. An excerpt: For further investigation of the ability of compound VIIIc to induce apoptosis, an Annexin V (conjugated to FITC) apoptosis detection kit was employed. This assay detects phosphatidylserine (PS) expressed on the surface of apoptotic cells and fluoresces green after interacting with the labeled annexin V. During early apoptosis, membrane asymmetry is lost, and PS translocates from the cytoplasmic side of the membrane to the external leaflet. Propidium iodide (PI), the counterstain used in this assay, has the ability to cross only compromised membranes to intercalate into the DNA. Therefore, PI is used to detect the late stages of apoptosis by presence of red fluorescence.
Apoptosis was determined by staining cells with Annexin V–fluorescein isothiocyanate (FITC) and counterstaining with propidium iodide (PI) using the Annexin V–FITC/PI apoptosis detection kit (BD PharMingen, San Diego, CA, USA) according to the manufacturer’s instructions. Briefly, 4 × 10^6 cell/T 75 flask were exposed to compound VIIIc at its IC50 concentration for 24 and 48 h. The cells then were collected by trypsinization and 0.5 × 10^6 cells were washed twice with phosphate-buffered saline (PBS) and stained with 5 μL Annexin V–FITC and 5 μL PI in 1× binding buffer (BD PharMingen) for 15 min at room temperature in the dark. Analyses were performed using FACS Calibur flow cytometer (BD Biosciences).

In data set [9] the test system is fibroblast-like fetal lung cell line (WI-38). The experiment in a line: In vitro MTT cytotoxicity assay on normal WI-38 cells. (Formazan colour is commonly taken as a measure of viable cells.)
Procedure: Cell Line cells were obtained from American Type Culture Collection, cells were cultured using DMEM (Invitrogen/Life Technologies, Waltham, MA, USA) supplemented with 10% FBS (Hyclone, Waltham, MA, USA), 10 μg/mL of insulin (Sigma), and 1% penicillin-streptomycin. All of the other chemicals and reagents were from Sigma, or Invitrogen. Plate cells (cells density 1.2–1.8 × 10,000 cells/well) in a volume of 100 µL complete growth medium + 100 μL of the tested compound per well in a 96-well plate for 24 h before the MTT assay.

T1 sequence (P35968 20-1356): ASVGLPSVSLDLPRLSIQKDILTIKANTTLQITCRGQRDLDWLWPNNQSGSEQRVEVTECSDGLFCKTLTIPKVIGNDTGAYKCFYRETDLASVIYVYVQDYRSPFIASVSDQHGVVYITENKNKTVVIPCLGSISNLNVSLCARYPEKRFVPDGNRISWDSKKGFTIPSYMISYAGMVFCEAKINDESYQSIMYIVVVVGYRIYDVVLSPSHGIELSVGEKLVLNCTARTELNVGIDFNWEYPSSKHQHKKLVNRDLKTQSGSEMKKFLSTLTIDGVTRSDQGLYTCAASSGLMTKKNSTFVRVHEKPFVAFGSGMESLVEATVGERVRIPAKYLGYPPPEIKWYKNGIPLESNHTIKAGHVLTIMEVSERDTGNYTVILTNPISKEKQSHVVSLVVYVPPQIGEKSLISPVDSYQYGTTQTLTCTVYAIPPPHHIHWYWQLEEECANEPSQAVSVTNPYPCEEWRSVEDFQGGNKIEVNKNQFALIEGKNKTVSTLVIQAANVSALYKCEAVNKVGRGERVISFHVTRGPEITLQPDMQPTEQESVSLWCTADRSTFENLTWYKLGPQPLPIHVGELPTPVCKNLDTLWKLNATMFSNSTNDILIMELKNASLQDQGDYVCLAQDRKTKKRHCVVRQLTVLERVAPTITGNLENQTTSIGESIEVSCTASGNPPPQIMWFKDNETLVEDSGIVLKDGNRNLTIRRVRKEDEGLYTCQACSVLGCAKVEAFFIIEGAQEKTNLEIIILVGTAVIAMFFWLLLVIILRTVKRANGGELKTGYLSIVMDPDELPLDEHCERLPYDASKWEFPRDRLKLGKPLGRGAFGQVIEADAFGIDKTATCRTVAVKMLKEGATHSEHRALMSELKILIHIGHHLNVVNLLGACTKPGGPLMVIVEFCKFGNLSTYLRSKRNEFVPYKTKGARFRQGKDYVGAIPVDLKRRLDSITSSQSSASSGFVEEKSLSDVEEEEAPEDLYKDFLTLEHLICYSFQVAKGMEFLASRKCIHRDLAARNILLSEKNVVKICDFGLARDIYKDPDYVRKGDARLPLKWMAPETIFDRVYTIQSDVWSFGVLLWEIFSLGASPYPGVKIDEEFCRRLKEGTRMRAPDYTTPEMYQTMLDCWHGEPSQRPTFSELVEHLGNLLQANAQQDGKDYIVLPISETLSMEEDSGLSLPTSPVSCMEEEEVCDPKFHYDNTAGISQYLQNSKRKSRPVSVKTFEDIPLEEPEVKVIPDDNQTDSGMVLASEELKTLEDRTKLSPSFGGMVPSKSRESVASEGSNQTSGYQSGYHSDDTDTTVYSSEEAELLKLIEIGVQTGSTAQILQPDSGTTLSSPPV

The molecule `O=C(Nc1ccc(Cl)cc1)c1cccc(Nc2nc3ccccc3nc2Cl)c1` [Compound XVb, N-(4-Chlorophenyl)-3-((3-chloroquinoxalin-2-yl)amino)benzamide] yielded a melting point of 283 to 285 °C. This molecule showed an IC50 in data set [1] of 15.5 µM. The half-maximal inhibitory concentration (IC50) in data set [2] amounted to 27.5 µM. In data set [3], this molecule came in with a half-maximal inhibitory concentration (IC50) of 21.4 µM. In addition, the inhibition at 10 µM on VEGFR-2 [4] is 7%. Moreover, the “activity against the tested cell lines (in words)” value in data set [5] is “moderate to weak activities”.
In the case of `COc1ccc(Nc2nc3ccc(NC(=O)c4ccccc4C(=O)O)cc3[nH]c2=O)cc1` [Compound 4], at VEGFR-2 [6], the “inhibition percentage against VEGFR-2” value is recorded as 69%.
For the molecule `Cc1nc2ccccc2nc1Nc1cccc(C(=O)Nc2ccc(Cl)cc2)c1` [VIb, N-(4-Chlorophenyl)-3-((3-methylquinoxalin-2-yl)amino)benzamide], the melting point was in the range of 240 to 241 °C. Besides, the concentration for half-maximal inhibition (IC50) in [1] was determined as 537 µM. The half-maximal inhibitory concentration (IC50) in data set [2] was found to be 955 µM. Besides, it took 692 µM to reach half-maximal inhibition in data set [3] (IC50). Moreover, the “activity against the tested cell lines (in words)” value in data set [5] is recorded as “no significant inhibitory activity”.
Consider `Cc1nc2ccccc2nc1Nc1ccc(NC(=O)Nc2ccc(Cl)cc2)cc1` [Compound VIIIc, 1-(4-Chlorophenyl)-3-(4-((3-methylquinoxalin-2-yl)amino)phenyl)urea], for which the IC50 in data set [1] was determined as 2.5 µM; in data set [2], 22 µM; in [3], 9 µM; in data set [9] (read-out: IC50 on WI-38 cell line, MTT, normal cell line), 97.2 ± 5.66 µM. In addition, in data set [2], the “anti-cancer activity against Hep G2 cell line (in words)” value is given as “moderate activity”. The “activity against VEGFR-2 (in words)” value at VEGFR-2 [4] (10 µM) is “weak activity”. Also, on VEGFR-2 [4], the inhibition at 10 µM worked out at 7%. In addition, the “effect on cell cycle profile (in words)” value is “increase in G1 phase” in the data set with HCT116 cells [7] (24 h) and “cell cycle arrest at G2/M phase boundary” with HCT116 cells [7] (48 h). Moreover, the “annexin-V positive cells (in words)” value in the data set with HCT116 cells [8] is recorded as “increased the percentage of annexin-V positive cells”. Moreover, the “activity against the tested cell lines (in words)” value in [5] was “promising activity”. In addition, the “selectivity as anti-cancer agent (in words), from WI-38 IC50” value in [9] is given as “moderate selectivity”.
`Cc1ccc(S(=O)(=O)Nc2ccc(Nc3nc4ccccc4nc3Cl)cc2)cc1` [XVIIIa, N-(4-((3-Chloroquinoxalin-2-yl)amino)phenyl)-4-methylbenzenesulfonamide]: the melting point lay within 250 to 252 °C. 302 µM corresponded to half-maximal inhibition in [1] (IC50). Further, the IC50 in data set [2] was 490 µM. Further, half-maximal inhibition in data set [3] (IC50) required 537 µM. In addition, the inhibition at 10 µM at VEGFR-2 [4] worked out at 4%.
